# Assay results from patent US20250179047A1, “5-[7-(3,4-DIHYDRO-1H-ISOQUINOLINE-2-CARBONYL)-1,2,3,4 TETRAHYDROISOQUINOLIN-6-YL]-1H-PYRROLE-3-CARBOXAMIDE DERIVATIVES, PHARMACEUTICAL COMPOSITIONS CONTAINING THEM AND THEIR USES AS PRO-APOPTOTIC AGENTS” (LES LABORATOIRES SERVIER, priority 2022, published 2025).
# Experiments:
# BCLXL WT = BCLXL WT (Homo sapiens (Human), UniProt Q07817); experiment: TR-FRET competitive binding assay, BCLXL WT; conditions: for Ki: BCLXL WT, Ki determined from IC50, read-out: TR_FRET EKI BclxL; for TR_FRET EKI BCLxL/WT selectivty ratio: ratio Ki BCLxL / Ki BCL2 WT
# How it was run: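 Terbium-labelled N-terminal Halo-fusion BCL2 or BCLXL (E. coli), 0.5 nM, competed against fluorescein-labelled PUMA peptide (2 or 20 nM) for 2 h at 23° C in 50 mM Hepes pH 7.5, 150 mM NaCl, 5% DMSO. TR-FRET 520/495 nm ratio gave IC50 by four-parameter fit; Ki derived from IC50.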
# KMS12PE = experiment: In vitro cytotoxicity CellTiterGlo 72 h, KMS12PE; format: cell-based; conditions: Homo sapiens, KMS-12-PE, read-out: C50 nM, KMS12PE
# Method: (§1) KMS-12-PE (ACC 606) were purchased from the Leibniz-Institute DSMZ (Braunschweig, Germany) and were grown at 37° C. in a humidified atmosphere with 5% CO2 in media recommended by the suppliers. Lentiviral particles containing Bcl-2 wild type (also named “Bcl2 WT”), Bcl-2 mutated on G101V (also named “Bcl2 G101V”), Bcl-2 mutated on D103Y (also named “Bcl2 D103Y”), Bcl-2 mutated on D103V (also named “Bcl2 D103V”), Bcl-2 mutated on D103E (also named “Bcl2 D103E”), Bcl-2 mutated on F104I (also named “Bcl2 F104I”), Bcl-2 mutated on F104L (also named “Bcl2 F104L”), Bcl-2 mutated on D111A (also named “Bcl2 D111A”), Bcl-2 mutated on A113G (also named “Bcl2 A113G”), Bcl-2 mutated on R129L (also named “Bcl2 R129L”), Bcl-2 mutated on V156D (also named “Bcl2 V156D”) were cloned into pcLV-CMV-DEST-IRES-TagRFP. Lentiviral particles (1×10^6) were mixed with Polybrene at 8 μg/ml and transduced by spinoculation for 1 h at 32° C. and incubated overnight. After 8 days, TagRFP positive-cells were sorted by FACS. BCL2 expression was monitored by immunoblotting using anti-Flag and anti-BCL2 antibodies. Cells were seeded into 96-wells plates and treated with 1:3.16 serial dilution of compounds (9 different concentrations). Cell viability was assessed using CellTiterGlo reagent following treatment for 72 h. Results were normalized to the viability of cells without compounds (control wells). The C50 values were calculated using nonlinear regression algorithms in XCell software.
# KMS12PE Bcl2 F104I = experiment: In vitro cytotoxicity CellTiterGlo 72 h, KMS12PE Bcl2 F104I; format: cell-based; conditions: Homo sapiens, KMS-12-PE, read-out: C50 nM, KMS12PE Bcl2 F104I
# Method: as §1
# KMS12PE Bcl2 D111A = experiment: In vitro cytotoxicity CellTiterGlo 72 h, KMS12PE Bcl2 D111A; format: cell-based; conditions: Homo sapiens, KMS-12-PE, read-out: C50 nM, KMS12PE Bcl2 D111A
# Method: as §1
# KMS12PE Bcl2 D103V = experiment: In vitro cytotoxicity CellTiterGlo 72 h, KMS12PE Bcl2 D103V; format: cell-based; conditions: Homo sapiens, KMS-12-PE, read-out: C50 nM, KMS12PE Bcl2 D103V
# Method: as §1
# KMS12PE Bcl2 F104L = experiment: In vitro cytotoxicity CellTiterGlo 72 h, KMS12PE Bcl2 F104L; format: cell-based; conditions: Homo sapiens, KMS-12-PE, read-out: C50 nM, KMS12PE Bcl2 F104L
# Method: as §1
# Chain of BCLXL WT (Q07817 other isoform, or with tags, fused parts or gaps): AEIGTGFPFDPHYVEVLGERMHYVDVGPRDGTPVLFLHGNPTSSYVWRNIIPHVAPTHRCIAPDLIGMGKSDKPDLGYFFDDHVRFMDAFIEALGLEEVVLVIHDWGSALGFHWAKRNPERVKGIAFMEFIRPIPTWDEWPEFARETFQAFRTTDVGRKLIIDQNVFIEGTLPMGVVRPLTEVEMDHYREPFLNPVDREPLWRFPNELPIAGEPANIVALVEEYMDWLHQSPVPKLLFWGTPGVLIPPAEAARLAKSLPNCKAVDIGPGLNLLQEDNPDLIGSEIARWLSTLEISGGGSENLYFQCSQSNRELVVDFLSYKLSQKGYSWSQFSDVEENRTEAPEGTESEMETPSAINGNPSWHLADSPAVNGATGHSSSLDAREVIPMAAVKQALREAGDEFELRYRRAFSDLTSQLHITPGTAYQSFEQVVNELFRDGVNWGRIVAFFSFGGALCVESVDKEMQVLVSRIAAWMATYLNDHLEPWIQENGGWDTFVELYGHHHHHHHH
SMILES,Ki (BCLXL WT) [nM],TR_FRET EKI BCLxL/WT selectivty ratio (BCLXL WT),IC50 (KMS12PE) [nM],IC50 (KMS12PE Bcl2 F104I) [nM],IC50 (KMS12PE Bcl2 D111A) [nM],IC50 (KMS12PE Bcl2 D103V) [nM],IC50 (KMS12PE Bcl2 F104L) [nM]
"Cc1c(N(C(=O)c2cc(-c3cc4c(cc3C(=O)N3Cc5ccccc5C[C@H]3C)CN(C(=O)Cc3ccc(OCCN5CCOCC5)cc3)CC4)n(C)c2C)c2ccc(O)cc2)cc(C#N)n1C [Example 21, N-(5-cyano-1,2-dimethyl-1H-pyrrol-3-yl)-N-(4-hydroxyphenyl)-1,2-dimethyl-5-{7-[(3R)-3-methyl-1,2,3,4-tetrahydroisoquinoline-2-carbonyl]-2-(2-{4-[2-(morpholin-4-yl)ethoxy]phenyl}acetyl)-1,2,3,4-tetrahydroisoquinolin-6-yl}-1H-pyrrole-3-carboxamide]",1.1,10.0,0.24,45,1.27,3.34,15.8
"Cc1c(N(C(=O)c2cc(-c3cc4c(cc3C(=O)N3Cc5ccccc5C[C@H]3C)CN(C(=O)Cc3ccc(OCCC5CCOCC5)cc3)CC4)n(C)c2C)c2ccc(O)cc2)cc(C#N)n1C [Example 27, N-(5-cyano-1,2-dimethyl-1H-pyrrol-3-yl)-N-(4-hydroxyphenyl)-1,2-dimethyl-5-{7-[(3R)-3-methyl-1,2,3,4-tetrahydroisoquinoline-2-carbonyl]-2-(2-{4-[2-(oxan-4-yl)ethoxy]phenyl}acetyl)-1,2,3,4-tetrahydroisoquinolin-6-yl}-1H-pyrrole-3-carboxamide]",10.1,12.6,0.19,29.1,0.86,1.55,5.51
"Cc1c(N(C(=O)c2cc(-c3cc4c(cc3C(=O)N3Cc5ccccc5C[C@H]3CN3CCCCC3)CN(C(=O)Cc3ccc(OCCN5CCOCC5)cc3F)CC4)n(C)c2C)c2ccc(O)cc2)cc(C#N)n1C [Example 43, N-(5-cyano-1,2-dimethylpyrrol-3-yl)-5-[2-(2-{2-fluoro-4-[2-(morpholin-4-yl)ethoxy]phenyl}acetyl)-7-{[(3S)-3-(piperidin-1-ylmethyl)-3,4-dihydro-1H-isoquinolin-2-yl]carbonyl}-3,4-dihydro-1H-isoquinolin-6-yl]-N-(4-hydroxyphenyl)-1,2-dimethylpyrrole-3-carboxamide]",2.2,55.0,0.22,29.3,1.13,2,8.49
"Cc1c(N(C(=O)c2cc(-c3cc4c(cc3C(=O)N3Cc5ccccc5C[C@H]3C)CN(C(=O)Cc3ccc(N5CCN6CCOC[C@@H]6C5)cc3F)CC4)n(C)c2C)c2ccc(O)cc2)cc(C#N)n1C [Example 45, 5-[2-(2-{4-[(9aS)-octahydropyrazino[2,1-c][1,4]oxazin-8-yl]-2-fluorophenyl}acetyl)-7-[(3R)-3-methyl-1,2,3,4-tetrahydroisoquinoline-2-carbonyl]-1,2,3,4-tetrahydroisoquinolin-6-yl]-N-(5-cyano-1,2-dimethyl-1H-pyrrol-3-yl)-N-(4-hydroxyphenyl)-1,2-dimethyl-1H-pyrrole-3-carboxamide]",2.5,31.6,0.32,114,2.05,2.7,22.5
"Cc1c(N(C(=O)c2cc(-c3cc4c(cc3C(=O)N3Cc5ccccc5C[C@H]3C)CN(C(=O)Cc3ccc(CCN5CCC(F)(F)CC5)cc3)CC4)n(C)c2C)c2ccc(O)cc2)cc(C#N)n1C [Example 51, N-(5-cyano-1,2-dimethylpyrrol-3-yl)-5-[2-(2-{4-[2-(4,4-difluoropiperidin-1-yl)ethyl]phenyl}acetyl)-7-{[(3R)-3-methyl-3,4-dihydro-1H-isoquinolin-2-yl]carbonyl}-3,4-dihydro-1H-isoquinolin-6-yl]-N-(4-hydroxyphenyl)-1,2-dimethylpyrrole-3-carboxamide]",4.4,20.0,0.34,321,3.21,4.63,58.9
